Test results published in patent publication US20110319660A1 (Galactic SA, priority 2008, published 2011).

Experiments:
[1] = Secondary nucleation temperature Tn of lactic acid solution; type: physicochemical
Procedure: We measured the secondary nucleation temperature for more reproducibility. For this purpose, a few large crystals (three or four) are introduced into the slightly subcooled solution (26° C.). These crystals are used to initiate nucleation. To obtain nucleation, the solution is cooled according to a cooling gradient of 10° C./hr. The nucleation temperature is measured when the first crystal (excluding crystals in solution) appears.

[2] = Specific surface area by mass of crystals by optical microscopy; type: physicochemical
Text: The specific surface area by mass (SSM) of crystals is the area developed by the crystals per unit of weight. The specific surface area by mass (SSM) is used to compare the dimensional characteristics of crystals of a suspension or a powder with those of another suspension or powder. This specific surface area can be measured by means of optical imaging on the basis of a volume (Vm) and the mean surface area (Sm) of hundreds of crystals (by measuring the length of the face thereof) and the density of the crystals (Dc):
The crystal size measurements were made using an optical microscope (Askania RME5) equipped with a digital camera (Nikon Coolpix 4500) with crystal measurement software supplied by Leica. For both test conditions, the length (L1) and thickness (L2) of 200 crystals were measured.
The specific surface area by mass of the crystals obtained at low supersaturation is 0.03 m^2/g whereas that of the crystals at high supersaturation is 0.06 m^2/g. This is calculated by taking the surface area and the volume of a parallelepiped having a length L1 and width and thickness L2.
The specific surface area by mass of the crystals is also estimated by measuring the length and thickness of 200 crystals of each sample according to the protocol described in example 1.

[3] = Thermal stability test: colour after heating at reflux at 200° C. for two hours; details: 90% solution of crystals
Procedure: The analyses conducted on the 90% crystal solutions are a measurement of the colour at ambient temperature (APHA scale in Hazen units) and a thermal stability test consisting of measuring the colour (APHA scale in Hazen units) of the substance after heating at reflux at a temperature of 200° C. for two hours.

secondary nucleation temperature ([1]; Example 1: lactic acid concentration 92%, colour 2000 Hazen, relative monomer content 96%): 18 °C | Tn ([1]; Example 2: lactic acid concentration 90%, colour 1800 Hazen, relative monomer content 94%): 18 °C | Tn ([1]; Example 4: lactic acid concentration 95.4%, colour 1900 Hazen, relative monomer content 91%): 33 °C | Tn ([1]; total acidity 89%, free acidity 78.7%, relative monomer content 77%): 8 °C | Tn ([1]; total acidity 89%, free acidity 84%, relative monomer content 89%): 15 °C | Tn ([1]; total acidity 89%, free acidity 87.6%, relative monomer content 97.5%): 22 °C | Tn ([1]; total acidity 89%, free acidity 88.2%, relative monomer content 99%): 23 °C | Specific surface area by mass ([2]; Example 1: crystals obtained at high supersaturation Ds^c=87.5%): 0.06 m^2/g | Specific surface area by mass ([2]; Example 1: crystals obtained at low supersaturation Ds^c=12.5%): 0.03 m^2/g | Specific surface area by mass ([2]; Example 2: crystals, supersaturation 14%): 0.03 m^2/g | Specific surface area by mass ([2]; Example 2: crystals, supersaturation 50%): 0.045 m^2/g | Specific surface area by mass ([2]; Example 2: crystals, supersaturation 86%): 0.07 m^2/g | Colour after heating (200° C., 2 hrs), after drying ([3]; Example 2: supersaturation 14%): 500 Hazen | Colour after heating (200° C., 2 hrs), after passage on Noritt ROX activated carbon (20 g/l) ([3]; Example 2: supersaturation 14%): 25 Hazen | Colour after heating (200° C., 2 hrs), after washing (25% of a 90% lactic acid solution, 4° C.) ([3]; Example 2: supersaturation 14%): 49 Hazen | Colour after heating (200° C., 2 hrs), after drying ([3]; Example 2: supersaturation 50%): 900 Hazen | Colour after heating (200° C., 2 hrs), after passage on Noritt ROX activated carbon (20 g/l) ([3]; Example 2: supersaturation 50%): 45 Hazen | Colour after heating (200° C., 2 hrs), after washing (25% of a 90% lactic acid solution, 4° C.) ([3]; Example 2: supersaturation 50%): 88 Hazen | Colour after heating (200° C., 2 hrs), after drying ([3]; Example 2: supersaturation 86%): 1328 Hazen | Colour after heating (200° C., 2 hrs), after washing (25% of a 90% lactic acid solution, 4° C.) ([3]; Example 2: supersaturation 86%): 480 Hazen
SMILES: CC(O)C(=O)O (centres unmarked) [lactic acid, hydroxy-2-propanoic acid]
